From publication PMC9586938, “Picomolar fluorescent probes for compound affinity determination to carbonic anhydrase IX expressed in live cancer cells” (Scientific Reports, 2022)
Where “and” joins values, the source holds several entries; their conditions need not be identical. Equal values may be shown once. Read-outs that look alike come from different tables or passages of the source.

How the values were obtained:
[1] = target: T1, CAIX expressed on live HeLa cells (Homo sapiens, UniProt Q16790); test: Competition of unlabeled compound with 10 nM GZ19-32 on hypoxic HeLa cells (competitive binding model); format: cell-based
T1 construct: recombinant CAIX and endogenous CAIX expressed on the cell surface; endogenous in cells; host or cells: HeLa (WT), grown under hypoxia (1% O2)

hypoxic HeLa cells = test: XTT cell viability assay; format: cell-based, human; conditions: up to 1 µM, 3 h
Protocol: Potential cytotoxic effects on HeLa cells were determined by XTT assay. The XTT was carried out as previously described by Scudiero et al.[53]. HeLa cells were cultured under hypoxia (1% O2) for three days prior to measurements. Cells were detached from the plate with Accumax Cell Detachment Solution (ACM-1F; Capricorn Scientific, Ebsdorfergrund, Germany), washed and resuspended in HEPES-buffered saline (143 mM NaCl, 5 mM KCl, 2 mM CaCl2, 1 mM MgSO4, 1 mM Na2HPO4, 10 mM HEPES, pH 7.2). For each measurement, 100,000 cells were incubated with 1 nM or 1 µM of GZ18-23 for 3 h prior to adding the XTT (No. 38450, SERVA Electrophoresis GmbH, Heidelberg, Germany) / electron coupling reagent (PMS; No. 32030, SERVA). XTT-specific absorbance was measured at 492 nm using a microplate reader (Tecan Infinite F200; Tecan Trading AG, Männedorf, Switzerland). Background absorption was measured at 690 nm. Cells, which were not incubated in GZ18-23, were used as control (100%).

CAXIV = target: T2, CAXIV (Homo sapiens, UniProt Q9ULX7); test: Thermal shift assay (TSA), recombinant CAXIV; format: binding; conditions: 37 °C, pH 7.0, observed (not intrinsic)
T2 construct: Isozymes CAIX, CAXII, and CAXIV were the catalytic domains of the proteins; made in house; host or cells: E. coli

CAIII = target: T3, CAIII (Homo sapiens, UniProt P07451); test: Thermal shift assay (TSA), recombinant CAIII; format: binding; conditions: 37 °C, pH 7.0, observed (not intrinsic)
T3 construct: made in house; host or cells: E. coli
Protocol: (§1) The binding affinities of all fluorescein-containing compounds were determined for all 12 catalytically active CA isozymes by the thermal shift assay (TSA). […] However, the SFA technique cannot determine the affinities lower than the enzyme concentration used in the assay. […] In addition, we used isothermal titration calorimetry (ITC), the standard assay to determine affinity and enthalpy of protein–ligand binding. […] Therefore, ITC was used only to determine the enthalpy of interaction and confirm the ordering of compound affinities.
(§2) All twelve catalytically active human CA isozymes were prepared recombinantly as previously described. Isozymes CAIX, CAXII, and CAXIV were the catalytic domains of the proteins[14],[38]. All isozymes were expressed in E. coli except CAIX that has been prepared in mammalian cells. The proteins were chromatographically purified on ion-exchange or benzene sulfonamide containing affinity columns. Protein MW was confirmed by mass spectrometry with 1 Da precision as predicted from gene sequence.
(§3) Compound affinities for the twelve catalytically active CA isozymes were determined by the thermal shift assay as previously described[30],[39]. Protein solutions containing 1,8-anilinonaphthalenesulfonate fluorescent probe were heated from 25 to 100 °C at a rate of one degree per minute while following the fluorescence of the probe. The temperature scanning curves provided the melting temperature Tm of the protein. The Tm has a distinct dependence on the concentration of a compound. Stronger binders shift the Tm to a greater extent than the weak binders. The Tm dependencies on compound concentration were fit to obtain the affinity Kd[40].

[2] = target: T4, catalytic domain of recombinant human CAIX (Homo sapiens, UniProt Q16790); test: Thermal shift assay (TSA), recombinant CAIX catalytic domain; format: binding
T4 construct: Isozymes CAIX, CAXII, and CAXIV were the catalytic domains of the proteins; made in house; host or cells: mammalian cells

CAXIII = target: T5, CAXIII (Homo sapiens, UniProt Q8N1Q1); test: Thermal shift assay (TSA), recombinant CAXIII; format: binding; conditions: 37 °C, pH 7.0, observed (not intrinsic)
T5 construct: made in house; host or cells: E. coli

CAI = target: T6, CAI (Homo sapiens, UniProt P00915); test: Thermal shift assay (TSA), recombinant CAI; format: binding; conditions: 37 °C, pH 7.0, observed (not intrinsic)
T6 construct: made in house; host or cells: E. coli

CAVB = target: T7, CAVB (Homo sapiens, UniProt Q9Y2D0); test: Thermal shift assay (TSA), recombinant CAVB; format: binding; conditions: 37 °C, pH 7.0, observed (not intrinsic)
T7 construct: made in house; host or cells: E. coli

CAVI = target: T8, CAVI (Homo sapiens, UniProt P23280); test: Thermal shift assay (TSA), recombinant CAVI; format: binding; conditions: 37 °C, pH 7.0, observed (not intrinsic)
T8 construct: made in house; host or cells: E. coli
Protocol: as §1, §2, §3

[3] = test system: CA activity in hypoxic HeLa WT cells; test: CA activity by gas-analysis mass spectrometry in live hypoxic HeLa WT cells; format: cell-based, human; conditions: Fig. 7A
Protocol: (§4) Catalytic activity of CA in hypoxic human cervical adenocarcinoma (HeLa) cells was determined by monitoring the ^18O depletion of doubly labeled ^13C^18O2 through several hydration and dehydration steps with a quadrupole mass spectrometer (OmniStar GSD 320; Pfeiffer Vacuum, Asslar, Germany) as previously described[16],[51]. HeLa cells were cultured in Dulbecco’s Modified Eagle’s Medium–high glucose (D5671; Sigma Aldrich, Schnelldorf, Germany), supplemented with 10% fetal calf serum and 1% penicillin / streptomycin. The cell line was cultured under hypoxia (1% O2) for three days prior to measurements. Cells were detached from the plate with Accumax Cell Detachment Solution (ACM-1F; Capricorn Scientific, Ebsdorfergrund, Germany), washed and resuspended in HEPES-buffered saline (143 mM NaCl, 5 mM KCl, 2 mM CaCl2, 1 mM MgSO4, 1 mM Na2HPO4, 10 mM HEPES, pH 7.2). Approximately 3 × 10^6 cells, dissolved in 5 mL of HEPES-buffered saline (pH 7.2, RT), were used for every single measurement. […] For every measurement, the non-catalyzed reaction was determined for 12 min in the presence of inhibitor, before cell suspension was added to the measuring cuvette and the catalyzed reaction was determined for 12 min. […] IC50 values were determined by Hill1 fit using OriginPro 8.6 (OriginLab Corporation). CA enzymatic activity in units (U) was calculated as defined by Badger and Price[52]. […]

CAVII = target: T9, CAVII (Homo sapiens, UniProt P43166); test: Thermal shift assay (TSA), recombinant CAVII; format: binding; conditions: 37 °C, pH 7.0, observed (not intrinsic)
T9 construct: made in house; host or cells: E. coli

CAIV = target: T10, CAIV (Homo sapiens, UniProt P22748); test: Thermal shift assay (TSA), recombinant CAIV; format: binding; conditions: 37 °C, pH 7.0, observed (not intrinsic)
T10 construct: made in house; host or cells: E. coli

CAVA = target: T11, CAVA (Homo sapiens, UniProt P35218); test: Thermal shift assay (TSA), recombinant CAVA; format: binding; conditions: 37 °C, pH 7.0, observed (not intrinsic)
T11 construct: made in house; host or cells: E. coli
Protocol: as §1, §2, §3

CAII = target: T12, CAII (Homo sapiens, UniProt P00918); test: Thermal shift assay (TSA), recombinant CAII; format: binding; conditions: 37 °C, pH 7.0, observed (not intrinsic)
T12 construct: made in house; host or cells: E. coli
Protocol: as §1, §2, §3

CAXII = target: T13, CAXII (Homo sapiens, UniProt O43570); test: Thermal shift assay (TSA), recombinant CAXII; format: binding; conditions: 37 °C, pH 7.0, observed (not intrinsic)
T13 construct: Isozymes CAIX, CAXII, and CAXIV were the catalytic domains of the proteins; made in house; host or cells: E. coli
Protocol: as §1, §2, §3

[4] = target: CAIX expressed on live A549 cells (Homo sapiens, UniProt Q16790); test: Competition of unlabeled compound with 10 nM GZ19-32 on hypoxic A549 cells (competitive binding model)
[5] = test system: CA activity in hypoxic HeLa CAIX-KO cells; test: CA activity by gas-analysis mass spectrometry in live hypoxic HeLa CAIX-KO cells; format: cell-based, human
Protocol: as §4

T13 sequence (O43570 30-289 limits assumed): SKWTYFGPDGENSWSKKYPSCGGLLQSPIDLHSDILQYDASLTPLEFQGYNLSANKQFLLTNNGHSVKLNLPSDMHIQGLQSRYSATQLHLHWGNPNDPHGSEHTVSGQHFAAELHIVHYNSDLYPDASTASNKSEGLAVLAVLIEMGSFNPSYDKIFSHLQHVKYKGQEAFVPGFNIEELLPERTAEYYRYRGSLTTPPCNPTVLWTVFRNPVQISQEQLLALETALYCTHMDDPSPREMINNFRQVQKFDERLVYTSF
T3 sequence (P07451 whole entry): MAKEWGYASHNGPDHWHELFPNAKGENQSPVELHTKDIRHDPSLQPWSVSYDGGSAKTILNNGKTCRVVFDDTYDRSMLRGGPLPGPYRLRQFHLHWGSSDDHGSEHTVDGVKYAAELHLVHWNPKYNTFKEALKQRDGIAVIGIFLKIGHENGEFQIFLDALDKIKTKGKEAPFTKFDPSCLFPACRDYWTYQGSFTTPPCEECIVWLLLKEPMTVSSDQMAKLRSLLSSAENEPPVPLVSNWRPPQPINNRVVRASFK
T6 sequence (P00915 whole entry): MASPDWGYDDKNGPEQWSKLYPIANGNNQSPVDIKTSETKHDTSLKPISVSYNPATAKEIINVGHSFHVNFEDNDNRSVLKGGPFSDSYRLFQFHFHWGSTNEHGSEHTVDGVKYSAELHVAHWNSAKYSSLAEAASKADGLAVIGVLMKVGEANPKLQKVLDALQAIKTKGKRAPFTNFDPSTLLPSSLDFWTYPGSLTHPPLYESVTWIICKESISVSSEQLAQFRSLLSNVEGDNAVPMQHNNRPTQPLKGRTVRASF
T8 sequence (P23280 18-308): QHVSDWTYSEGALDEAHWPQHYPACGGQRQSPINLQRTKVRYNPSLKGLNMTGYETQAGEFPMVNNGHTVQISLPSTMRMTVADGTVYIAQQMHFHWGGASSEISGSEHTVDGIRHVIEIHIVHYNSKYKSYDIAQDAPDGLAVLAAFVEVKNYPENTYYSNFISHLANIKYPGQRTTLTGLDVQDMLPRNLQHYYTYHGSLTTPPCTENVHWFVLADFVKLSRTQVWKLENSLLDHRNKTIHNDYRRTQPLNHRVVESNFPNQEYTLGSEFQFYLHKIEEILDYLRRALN
T10 sequence (P22748 19-312): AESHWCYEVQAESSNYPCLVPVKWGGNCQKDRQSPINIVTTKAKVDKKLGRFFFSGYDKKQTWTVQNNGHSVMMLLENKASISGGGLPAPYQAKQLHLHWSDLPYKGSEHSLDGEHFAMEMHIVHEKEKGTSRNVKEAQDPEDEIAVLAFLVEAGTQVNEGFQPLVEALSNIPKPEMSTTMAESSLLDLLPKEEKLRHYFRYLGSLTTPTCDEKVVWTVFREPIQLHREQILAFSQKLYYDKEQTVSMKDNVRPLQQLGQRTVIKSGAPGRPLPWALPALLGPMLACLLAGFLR
T7 sequence (Q9Y2D0 34-317): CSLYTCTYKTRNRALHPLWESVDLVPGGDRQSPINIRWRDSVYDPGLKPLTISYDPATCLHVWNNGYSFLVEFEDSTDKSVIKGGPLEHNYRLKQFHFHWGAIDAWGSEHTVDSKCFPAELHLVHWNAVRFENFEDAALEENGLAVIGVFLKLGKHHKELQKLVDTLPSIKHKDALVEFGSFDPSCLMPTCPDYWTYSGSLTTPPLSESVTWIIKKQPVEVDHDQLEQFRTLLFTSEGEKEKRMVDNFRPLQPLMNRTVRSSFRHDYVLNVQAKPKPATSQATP
T5 sequence (Q8N1Q1 whole entry): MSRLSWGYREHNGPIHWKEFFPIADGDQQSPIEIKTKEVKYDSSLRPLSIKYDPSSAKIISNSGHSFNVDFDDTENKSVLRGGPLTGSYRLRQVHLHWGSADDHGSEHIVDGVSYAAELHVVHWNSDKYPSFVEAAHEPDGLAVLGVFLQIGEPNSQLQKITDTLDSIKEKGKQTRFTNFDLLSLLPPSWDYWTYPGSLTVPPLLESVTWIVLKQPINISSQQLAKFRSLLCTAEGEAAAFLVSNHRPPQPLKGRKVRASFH
T11 sequence (P35218 39-305): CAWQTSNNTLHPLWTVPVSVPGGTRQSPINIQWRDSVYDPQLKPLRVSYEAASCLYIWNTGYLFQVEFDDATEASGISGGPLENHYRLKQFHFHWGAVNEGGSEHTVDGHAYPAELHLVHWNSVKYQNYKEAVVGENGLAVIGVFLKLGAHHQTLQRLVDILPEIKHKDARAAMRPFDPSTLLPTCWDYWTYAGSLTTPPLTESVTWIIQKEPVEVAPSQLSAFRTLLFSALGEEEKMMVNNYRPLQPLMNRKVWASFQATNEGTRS
T2 sequence (Q9ULX7 20-278 limits assumed): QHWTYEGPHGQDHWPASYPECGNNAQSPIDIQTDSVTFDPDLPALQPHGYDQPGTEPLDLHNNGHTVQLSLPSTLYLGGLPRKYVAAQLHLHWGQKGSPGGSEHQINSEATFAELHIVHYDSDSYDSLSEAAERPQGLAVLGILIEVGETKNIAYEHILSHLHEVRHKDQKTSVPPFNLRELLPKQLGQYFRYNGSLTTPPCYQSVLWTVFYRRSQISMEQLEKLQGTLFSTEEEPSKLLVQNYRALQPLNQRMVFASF
T9 sequence (P43166 whole entry): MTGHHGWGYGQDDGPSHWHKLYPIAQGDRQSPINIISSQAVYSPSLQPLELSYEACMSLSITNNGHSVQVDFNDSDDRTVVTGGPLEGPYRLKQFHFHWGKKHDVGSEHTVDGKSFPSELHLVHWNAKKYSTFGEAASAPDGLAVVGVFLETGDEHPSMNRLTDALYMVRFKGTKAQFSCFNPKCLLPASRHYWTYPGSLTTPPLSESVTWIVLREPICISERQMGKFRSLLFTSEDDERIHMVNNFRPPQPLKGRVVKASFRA

dosing midpoint of competition curve ([1]; 10 nM GZ19-32, Fig. 12): around 10 nM
Kd ([1]; HeLa cells grown under hypoxia, mixture with 10 nM GZ19-32, 20 min incubation, read-out: KdA, nM (competitive binding model)): 0.3 nM
difference between affinity for CAIX on cells and purified CAIX ([1]; lower affinity on cells): 3 to 10 factor
Kd (CAXIV): 3.3 nM
Kd (CAIII): > 200000 nM
Kd ([2]; TSA, 37 °C, pH 7.0, observed (not intrinsic), read-out: Kd CAIX): 0.033 nM
selectivity for CAIX over CAVII ([2]; ratio of Kd): 1000 ×
selectivity for CAIX over CAXII ([2]; ratio of Kd): 30 fold
selectivity for CAIX over CAXIII ([2]; ratio of Kd): 300 ×
selectivity for CAIX over CAXIV ([2]; ratio of Kd): 100 fold
selectivity for CAIX over the remaining CA isozymes ([2]; ratio of Kd): more than 3000 ×
Kd ([2]; recombinant CAIX, read-out: Kd for CAIX): 0.03 nM
Kd ([2]; recombinantly purified CAIX, read-out: Kd for purified CAIX by TSA): 0.033 nM
Kd (CAXIII): 10 nM
melting point: 143 to 144 °C
Kd (CAI): 5000 nM
Kd (CAVB): 160 nM
Kd (CAVI): 140 nM
IC50 ([3]; Homo sapiens, hypoxic HeLa cells, gas-analysis MS, read-out: k, inhibition of CA activity (Hill fit)): 0.92 nM
Kd (CAVII): 43 nM
Kd (CAIV): 120 nM
Kd (CAVA): 12500 nM
Kd (CAII): 160 nM
Kd (CAXII): 1 nM and 1.4 nM
Kd [4]: 0.22 nM
Structure (SMILES): NS(=O)(=O)c1c(F)c(F)c(S(=O)(=O)CCC(=O)O)c(NC2CCCCCCC2)c1F [GZ18-23, 3-((2-(cyclooctylamino)-3,5,6-trifluoro-4-sulfamoylphenyl)sulfonyl)propanoic acid]
viability of hypoxic HeLa cells (hypoxic HeLa cells): did not affect the viability
overall CA activity remaining uninhibited ([3]; hypoxic HeLa WT cells): approximately 20%
effect on CA activity [5]: no effect
